Test results published in US10647653B2, “Crystal of monovalent cation salt of 3-hydroxyisovaleric acid and process for producing the crystal” (KYOWA HAKKO BIO CO., LTD., priority 2015, dated 2020).
Read-outs that look alike come from different tables or passages of the source.

Tests used:
[1] = Mixing with 0.2 M phosphate buffer, light transmittance (660 nm) to evaluate insoluble salt formation; format: physicochemical
Protocol: A 100 g/L solution, in terms of free form, was prepared using the crystal of monovalent cation salt nonhydrate of HMB, obtained in each of Examples 2, 5 and 7, and mixed with 0.2 M phosphate buffer (pH: 6.80) in an arbitrary mixing ratio. The solution after mixing was measured for the light transmittance (660 nm) to evaluate the presence or absence of insoluble salt formation. In Table 13, “-” indicates unevaluated.

[2] = format: physicochemical
Protocol: The sodium HMB nonhydrate obtained in Example 2 was mixed with a glucose-amino acids-electrolytes infusion solution for peripheral vain nutrition [pH: about 6.7; Product Name: Aminofluid Infusion Solution (Otsuka Pharmaceutical Factory, Inc.)] to obtain 0, 0.11, 0.21 and 0.42 weight/volume % solutions at final concentration in terms of free form. The light transmittance (660 nm) was measured by ultraviolet and visible spectrophotometer immediately after the mixing or 24 hours after being left at room temperature to evaluate the presence or absence of insoluble salt formation.

[3] = rat, in vivo
Protocol: The solution was continuously administered to a rat on which operative stress was incurred by intestinal tract scratch operation at a normal dose (240 mL/kg/day) for 3 days. On the final day of administration, urine was collected by 24-hour urine collection and measured for the urinary electrolyte concentration.

[4] = Measurement of solubility in water at room temperature (HMB concentration of supernatant by HPLC); format: physicochemical
Protocol: The crystal of monovalent cation salt nonhydrate of HMB, obtained in each of Examples 2, 5 and 7, was added at room temperature until it dissolved in water and after keeping the solution for a sufficient time under stirring, the supernatant containing no crystal was sampled and measured for the HMB concentration by using HPLC.

[5] = pH of aqueous solution of 100 g/L salt crystal in terms of free HMB; format: physicochemical
Protocol: As for pH, an aqueous solution of 100 g/L salt crystal in terms of free HMB was measured.

[6] = mixing ratio 0.33 Vol/Vol (aqueous 100 g/L HMB solution/0.2M phosphate buffer pH 6.80)
[7] = mixing ratio 0.57 Vol/Vol (aqueous 100 g/L HMB solution/0.2M phosphate buffer pH 6.80)
[8] = HMB final concentration 0.11 weight/volume % in Aminofluid, 0 h after addition
[9] = HMB final concentration 0.11 weight/volume % in Aminofluid, 24 h after addition, room temperature
[10] = HMB final concentration 0.21 weight/volume % in Aminofluid, 0 h after addition
[11] = HMB final concentration 0.42 weight/volume % in Aminofluid, 24 h after addition, room temperature
[12] = mixing ratio 0.17 Vol/Vol (aqueous 100 g/L HMB solution/0.2M phosphate buffer pH 6.80)

| Transmittance T % (660 nm) [1, 6] | Transmittance T % (660 nm) [1, 7] | Insoluble salt formation (in words) ([1]; mixing with phosphate buffer) | Insoluble salt formation (in words) [2] | Transmittance T % (660 nm) [2, 8] | Transmittance T % (660 nm) [2, 9] | Transmittance T % (660 nm) [2, 10] | Transmittance T % (660 nm) [2, 11] | pH [5] | Transmittance T % (660 nm) [1, 12] | Solubility [4] | Solubility (in terms of free form) [4] | Insoluble salt formation (in words) [1] | SMILES | Electrolyte abnormality (in words) [3] | Solubility in water compared to existing calcium salt (in words) [4] | further results |
| --- | --- | --- | --- | --- | --- | --- | --- | --- | --- | --- | --- | --- | --- | --- | --- | --- |
| 0.02% | 0% | produces an insoluble salt | forms an insoluble salt | 100% | 70% | 90% | 20% | – | – | – | – | – | CC(C)(O)CC(=O)[O-].CC(C)(O)CC(=O)[O-].O.[Ca+2] [Calcium HMB hydrate, reference compound] | induces the increase in urinary calcium and the decrease in urinary phosphate excretion | – | Transmittance T % (660 nm) ([1]; mixing ratio 0.01 Vol/Vol (aqueous 100 g/L HMB solution/0.2M phosphate buffer pH 6.80)): 60% |
| 100% | 100% | do not form an insoluble salt | does not form an insoluble salt | 100% | 100% | 100% | 100% | 7.9 | 100% | – | – | – | CC(C)(O)CC(=O)[O-].[Na+] [Example 2, sodium HMB nonhydrate] | does not induce the above electrolyte abnormality | – | Solubility ([4]; in water, room temperature): 729 mg/mL; Solubility in water compared to existing calcium salt (in words) ([4]; in water, room temperature): greatly enhanced in the solubility in water; Solubility (in terms of free form) ([4]; in water, room temperature, in terms of free HMB): 513 mg/mL; Transmittance T % (660 nm) ([2]; HMB final concentration 0.21 weight/volume % in Aminofluid, 24 h after addition, room temperature): 100%; Transmittance T % (660 nm) ([2]; HMB final concentration 0.42 weight/volume % in Aminofluid, 0 h after addition): 100% |
| 100% | 100% | – | – | – | – | – | – | 7.9 | 100% | 1011 mg/mL | 764 mg/mL | do not form an insoluble salt | CC(C)(O)CC(=O)[O-].[K+] [Example 5, potassium HMB nonhydrate] | – | greatly enhanced in the solubility in water | – |
| 100% | 100% | – | – | – | – | – | – | 5.7 | 100% | 660 mg/mL | 577 mg/mL | do not form an insoluble salt | CC(C)(O)CC(=O)O.N [Example 7, ammonium HMB nonhydrate] | – | greatly enhanced in the solubility in water | – |
